What was measured:
[1] = system: Eragrostis teff; test: HTPS - Monocot - Pre-emergence; assay type: in vivo; conditions: N/A: not active; for Emax: read-out: HTPS - Monocot - Pre Max effect
How it was run: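 Pre-emergence: compound in 50% acetone applied at 30 μL/well onto sown sand (Arabidopsis or Eragrostis teff), max 1.5 Kg/Ha, 2.5-fold dilutions. Green area imaged by RGB, normalized to give % inhibition; ED50, ED75, ED90 from log-dose curves, t-test versus controls.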

[2] = system: LOLPE; test: In-planta LTP pre-emergence, visual phenotype; assay type: in vivo, Lolium perenne; conditions: monocot
Protocol: (§1) A basic panel of 8 weed species (Table 3) were sowed in 4×4×7 cm plastic pots containing inert sand (Sweet sand), intensively washed using osmosis water. Each specie was sowed in a separate pot. In each pot 10-15 seeds were sowed according to the specie viability. Sowing was performed one day before application. The plants were grown for 21 days in a controlled greenhouse (26±2° C. day 20±2° C. night). Hood irrigation (tap water+Shefer 5:3:8 8 mM) was given at a 50% water content by weight. Compounds were soluble in water (DDW), and commercial herbicide control was soluble in formulation B (Table 4). Application was conducted with an industrial sprayer (TeeJet 6502E nozzle) at a rate of 2 kg/ha and spray volume of […]. Pre-emergence advanced dose response experiment application was conducted at six rates between 1-0.0312 kg/ha and spray volume of […]. Percentage of emergence was evaluated at 15 DAA. Visual phenotyping was recorded using a scale of 0-6 (0: no visible effect, 6: maximum effect) at 18 DAA. All experiments included an untreated control, a solvent control and a positive control (commercial herbicide A.I.). Statistical analysis for visual phenotyping determined by a median value of ≥3.5 and Fisher test (pval≤0.05). Statistical analysis for plant emergence determined by % emergence ≥50 and T test (pval≤0.05), as well as Wilcox test (pval≤0.05).

[3] = system: ECHCO; test: In-planta LTP post-emergence, visual phenotype; assay type: in vivo, Echinochloa colona; conditions: monocot
Protocol: (§2) A basic panel of eight weed species (Table 3) sowed in 4×4×7 cm plastic pots containing a garden mix (klasmann). Each specie was sowed in a separate pot. In each pot, 10-15 seeds were sowed according to the specie viability. Timing of application determined at a 1-2 true leaf stage. The plants grew for 30 days in a controlled greenhouse (26±2° C. day, 20±2° C. night). Hood irrigation (tap water+Shefer 5:3:8 8 mM) was given at a 50% water content by weight. Two days before application, the tested plants thinned down to three plants per pot. Compounds were soluble in water (DDW), and commercial herbicide control was soluble in formulation B (Table 4). […] Plants were evaluated at 3 time points (4, 8, 12 days after application (DAA)). At each time point, visual phenotyping was recorded using a scale of 0-6 (0: no visible effect, 6: maximum effect). […]
(§3) Post-emergence advanced dose response experiment included 4 species: SETVI, ECHCO, AMAPA, ABUTH (Tables 3, 5). […] Plants were evaluated at 4 time points (6, 12, 18 and 26 DAA). At each time point, visual phenotyping was recorded using a scale of 0-6 (0: no visible effect, 6: maximum effect). […]
(§4) Post-emergence advanced wide panel experiment included 24 weed species (Table 5). […] Visual phenotyping was recorded at 4, 11, 17 and 20 DAA using a scale of 0-6 (0: no visible effect, 6: maximum effect). […]

[4] = system: AMAPA; test: In-planta LTP post-emergence, visual phenotype; assay type: in vivo, Amaranthus palmeri; conditions: dicot
Protocol: A basic panel of eight weed species (Table 3) sowed in 4×4×7 cm plastic pots containing a garden mix (klasmann). Each specie was sowed in a separate pot. In each pot, 10-15 seeds were sowed according to the specie viability. Timing of application determined at a 1-2 true leaf stage. The plants grew for 30 days in a controlled greenhouse (26±2° C. day, 20±2° C. night). Hood irrigation (tap water+Shefer 5:3:8 8 mM) was given at a 50% water content by weight. Two days before application, the tested plants thinned down to three plants per pot. Compounds were soluble in water (DDW), and commercial herbicide control was soluble in formulation B (Table 4). Before application, 1% (v/v) crop oil and 0.02% (v/v) surfactant (Tergitol™ 15-5-7) were added to the solution. Application was conducted with an industrial sprayer (TeeJet 6502E nozzle) at a rate of 2 kg/ha and spray volume of […]. Plants were evaluated at 3 time points (4, 8, 12 days after application (DAA)). At each time point, visual phenotyping was recorded using a scale of 0-6 (0: no visible effect, 6: maximum effect). At 12 DAA, plants foliage was harvested, dried and weighed for dry weight analysis.
Post-emergence advanced dose response experiment included 4 species: SETVI, ECHCO, AMAPA, ABUTH (Tables 3, 5). Application was conducted at six rates between 0.6-0.0187 kg/ha and spray volume of […]. Plants were evaluated at 4 time points (6, 12, 18 and 26 DAA). At each time point, visual phenotyping was recorded using a scale of 0-6 (0: no visible effect, 6: maximum effect). At 26 DAA, plants foliage was harvested, dried and weighed for dry weight analysis.
Post-emergence advanced wide panel experiment included 24 weed species (Table 5). Application was conducted at 2 rates of 2 kg/ha and 0.25 kg/ha and spray volume of […]. Visual phenotyping was recorded at 4, 11, 17 and 20 DAA using a scale of 0-6 (0: no visible effect, 6: maximum effect). At 21 DAA, plants foliage was harvested, dried, and weighed for dry weight analysis. All experiments included an untreated control, a solvent control, and a positive control (commercial herbicide A.I.). Statistical analysis for visual phenotyping determined by a median value of ≥3.5 and Fisher test (pval≤0.05). Statistical analysis for dry weight determined by % inhibition ≥50 and T test (pval≤0.05), as well as Wilcox test (pval≤0.05).

[5] = system: ABUTH; test: In-planta LTP post-emergence, visual phenotype; assay type: in vivo, Abutilon theophrasti; conditions: dicot
Protocol: as §2, §3, §4

[6] = system: ALOMY; test: In-planta LTP pre-emergence, visual phenotype; assay type: in vivo, Alopecurus myosuroides; conditions: monocot
Protocol: as §1

[7] = system: SETVI; test: In-planta LTP post-emergence, visual phenotype; assay type: in vivo, Setaria viridis; conditions: monocot
Protocol: as §2, §3, §4

[8] = system: MATCA; test: In-planta LTP pre-emergence, visual phenotype; assay type: in vivo, Matricaria chamomilla; conditions: dicot
Protocol: as §1

[9] = system: POAAN; test: In-planta LTP post-emergence, visual phenotype; assay type: in vivo, Poa annua; conditions: monocot
Protocol: as §2, §3, §4

Which “HTPS - Monocot - Pre ED50” value [1] does the source give for `CC(N)COc1cccc(C(=O)O)c1` (centres unmarked) [Compound 106] here?
Its value is 380 g/ha.

What about the Emax [1] of the same compound?
Its Emax is 87%.

What about the “DE Disturbed emergence (% effect)” value [2] of the same compound?
Its value is “DE (60) %”.

And the “IG Inhibited growth (% effect)” value [3]?
The value was “IG^1 (60) %”.

What about the “BL Bleaching (% effect)” value [4] of the same compound?
Its value is “BL^2 (60) %”.

And the “BL Bleaching (% effect)” value [5]?
The value was “BL (60) %”.

How did the “IG Inhibited growth (% effect)” value [6] turn out when `C#CCOC(=O)c1cccc(OCC(C)N)c1` (centres unmarked) [Compound 111] was run?
The value was “IG (40) %”.

What about the “IG Inhibited growth (% effect)” value [7] of the same compound?
Its value is “IG (60) %”.

And the “BL Bleaching (% effect)” value [4]?
The value was “BL (40) %”.

What about the “BL Bleaching (% effect)” value [5] of the same compound?
Its value is “BL (40) %”.

How did the “IG Inhibited growth (% effect)” value [2] turn out when `CCCCOC(=O)c1cccc(OCC(C)N)c1` (centres unmarked) [Compound 112] was run?
Its value is “IG (40) %”.

What about the “IG Inhibited growth (% effect)” value [8] of the same compound?
Its value is “IG (60) %”.

And the “IG Inhibited growth (% effect)” value [4]?
The value was “IG (60), %”.

`C[C@@H](N)COc1cccc(C(=O)O)c1` [Compound 154] was tested. Which “HTPS - Monocot - Pre ED50” value [1] did it give?
Its value is 150 g/ha.

What about the Emax [1] of the same compound?
Its Emax is 100%.

What about the “BL Bleaching (% effect)” value [6] of the same compound?
Its value is “BL (60) %”.

And the “DAB Disturbed apical bud (% effect)” value [6]?
The value was “DAB (60), %”.

What about the “DE Disturbed emergence (% effect)” value [6] of the same compound?
Its value is “DE (40), %”.

And the “IG Inhibited growth (% effect)” value [6]?
The value was “IG (80), %”.

And the “IG Inhibited growth (% effect)” value [2]?
Its value is “IG (60) %”.

What about the “IG Inhibited growth (% effect)” value [7] of the same compound?
Its value is “IG (60) %”.

And the “IG Inhibited growth (% effect)” value [9]?
The value was “IG (60) %”.

What about the “BL Bleaching (% effect)” value [4] of the same compound?
The value was “BL (60) %”.

— patent publication US20240336567A1, “PESTICIDAL AND HERBICIDAL COMPOUNDS AND METHODS OF USE THEREOF” (AG Plenus Ltd, priority 2021, published 2024)
